Measurements reported in patent US12491182B2, “Polymorphs of triazole antifungal compound PC945” (Pulmocide Limited, priority 2019, dated 2025).
Marks after values point to notes of the source that are not given here.

Experiments:
Format in all cases: physicochemical
[1] = Fate of Form 2 slurried in THF and THF/water mixtures, XRPD
Protocol: To investigate the generality of this unforeseen transformation a similar experiment was carried out in THF and in THF/water mixtures. […] At 25° C. those mixtures comprising 10% and 20% water returned Form 1 after 4 and 24 hours respectively (Table 10, Entries 2 and 3).

[2] = Fate of Form 2 slurried in 1,4-dioxane/water mixtures, XRPD; settings: 1,4-dioxane
Protocol: In the presence of 10% water the Form 1 polymorph is evident in the slurry mixture within an hour at 25° C. […] This ternary system behaved similarly at 50° C. However, at the higher temperature of 65° C. the rate of turnover is increased such that Form 1 was generated after 3 hr. Consistent with the data obtained from the experiments described above, increasing the proportion of water to 80% in this system was sufficient to halt the polymorphic interconversion at 25° C., 50° C. and even at 65° C.

[3] = Fate of Form 2 slurried in MEK/water mixtures, XRPD; settings: MEK, 25 °C, 24 hours
Protocol: (Table 12). It was observed that Form 2 integrity was maintained for at least 24 hours at the lower temperature until the water content exceeded 6%, despite an increase in solubility of Compound I from 19 to 30 mg/ml (data not shown).

[4] = as above; settings: MEK, 50 °C, 24 hour time point
[5] = Equilibration of Forms 1 and 2, singularly and as mixtures, in MEK and THF alone and with 5% water; settings: 5-10 °C, both equilibration temperatures
Text: The influence of the initial polymorphic composition on the fate of samples was investigated by equilibration of the either the single polymorphs or an equal mixture of both in anhydrous MEK and THF as well as in the same solvents doped with 5% water.
The results obtained (Table 13) reveal that in anhydrous media the two polymorphs retain their structural integrity, if present singularly (Table 13, Entries 1, 2, 4 and 5). […] (Table 13, Entry 4) which may be attributable to the presence of traces of moisture in a highly hygroscopic solvent.
The results observed when 5% water was admixed to the two solvents indicate that the predominance of the two forms reversed under these conditions, taking kinetic factors into account. In aqueous MEK (5% water) the single polymorphs were again unchanged for the duration of the experiment (Table 13, Entries 7 and 8). In contrast, the binary polymorphic mixture converted into Form 1 in this medium (Table 13, Entry 9). In aqueous THF (5% water) the dominance of Form 1 as the most preferred polymorph was especially evident. In this environment the suspension of Form 1 remained unchanged (Table 13, Entry 10), consistent with the outcome observed for aq MEK under the same conditions.
However, in THF doped with 5% water, both the suspension comprising the binary mixture, as well as that composed of the Form 2 polymorph alone, were transformed into suspensions containing only Form 1 (Table 13, Entries 11 and 12).

In the case of Cc1cc(N2CCN(c3ccc(C(=O)Nc4ccc(F)cc4)cc3)CC2)ccc1OC[C@@H]1CO[C@@](Cn2cncn2)(c2ccc(F)cc2F)C1 [Form 2, 4-(4-(4-(((3R,5R)-5-((1H-1,2,4-triazol-1-yl)methyl)-5-(2,4-difluorophenyl)tetrahydrofuran-3-yl)methoxy)-3-methylphenyl)piperazin-1-yl)-N-(4-fluorophenyl)benzamide], the “Polymorphic Form by XRPD” value ([1]; THF, water 0 vol %, 25 °C, 1 hr) was 2, the “Polymorphic Form by XRPD” value ([1]; THF, water 0 vol %, 25 °C, 4 hr) was 2 and the “Polymorphic Form by XRPD” value ([1]; THF, water 0 vol %, 50 °C, 1 hr) was 2. The “Polymorphic Form by XRPD” value ([1]; THF, water 0 vol %, 50 °C, 4 hr) was 2, the “Polymorphic Form by XRPD” value ([1]; THF/water, water 10 vol %, 25 °C, 1 hr) was 2 and the “Polymorphic Form by XRPD” value ([1]; THF/water, water 10 vol %, 25 °C, 4 hr) was 1. For the same compound, the “Polymorphic Form by XRPD” value ([1]; THF/water, water 10 vol %, 25 °C, 24 hr) was 1, the “Polymorphic Form by XRPD” value ([1]; THF/water, water 10 vol %, 50 °C, 1 hr) was 1 and the “Polymorphic Form by XRPD” value ([1]; THF/water, water 10 vol %, 50 °C, 4 hr) was 1. For the same compound, the “Polymorphic Form by XRPD” value ([1]; THF/water, water 10 vol %, 50 °C, 24 hr) was 1, the “Polymorphic Form by XRPD” value ([1]; THF/water, water 20 vol %, 25 °C, 1 hr) was 2 and the “Polymorphic Form by XRPD” value ([1]; THF/water, water 20 vol %, 25 °C, 4 hr) was 2. For the same compound, the “Polymorphic Form by XRPD” value ([1]; THF/water, water 20 vol %, 25 °C, 24 hr) was 1, the “Polymorphic Form by XRPD” value ([1]; THF/water, water 20 vol %, 50 °C, 1 hr) was 1 and the “Polymorphic Form by XRPD” value ([1]; THF/water, water 20 vol %, 50 °C, 4 hr) was 1. The “Polymorphic Form by XRPD” value ([1]; THF/water, water 20 vol %, 50 °C, 24 hr) was 1, the “Polymorphic Form by XRPD” value ([1]; THF/water, water 40 vol %, 25 °C, 1 hr) was 2 and the “Polymorphic Form by XRPD” value ([1]; THF/water, water 40 vol %, 25 °C, 4 hr) was 2. For the same compound, the “Polymorphic Form by XRPD” value ([1]; THF/water, water 40 vol %, 25 °C, 24 hr) was 2, the “Polymorphic Form by XRPD” value ([1]; THF/water, water 40 vol %, 50 °C, 1 hr) was 1 and the “Polymorphic Form by XRPD” value ([1]; THF/water, water 40 vol %, 50 °C, 4 hr) was 1. The “Polymorphic Form by XRPD” value ([1]; THF/water, water 40 vol %, 50 °C, 24 hr) was 1, the “Polymorphic Form by XRPD” value ([2]; 10% water, 25 °C, 1 hr, trace of Form 2 remaining) was 1^† and the “Polymorphic Form by XRPD” value ([2]; 10% water, 25 °C, 3 hr, trace of Form 2 remaining) was 1^†. The “Polymorphic Form by XRPD” value ([2]; 10% water, 25 °C, 6 hr, trace of Form 2 remaining) was 1^†, the “Polymorphic Form by XRPD” value ([2]; 10% water, 25 °C, 24 hr, trace of Form 2 remaining) was 1^† and the “Polymorphic Form by XRPD” value ([2]; 10% water, 50 °C, 24 hr) was 1. The “Polymorphic Form by XRPD” value ([2]; 40% water, 25 °C, 1 hr) was 2, the “Polymorphic Form by XRPD” value ([2]; 40% water, 25 °C, 3 hr) was 2 and the “Polymorphic Form by XRPD” value ([2]; 40% water, 25 °C, 6 hr) was 2. For the same compound, the “Polymorphic Form by XRPD” value ([2]; 40% water, 25 °C, 24 hr) was 1, the “Polymorphic Form by XRPD” value ([2]; 40% water, 50 °C, 1 hr) was 2 and the “Polymorphic Form by XRPD” value ([2]; 40% water, 50 °C, 3 hr) was 2. The “Polymorphic Form by XRPD” value ([2]; 40% water, 50 °C, 6 hr) was 2, the “Polymorphic Form by XRPD” value ([2]; 40% water, 50 °C, 24 hr) was 1 and the “Polymorphic Form by XRPD” value ([2]; 40% water, 65 °C, 1 hr) was 2. For the same compound, the “Polymorphic Form by XRPD” value ([2]; 40% water, 65 °C, 3 hr) was 1, the “Polymorphic Form by XRPD” value ([2]; 40% water, 65 °C, 6 hr) was 1 and the “Polymorphic Form by XRPD” value ([2]; 40% water, 65 °C, 24 hr) was 1. The “Polymorphic Form by XRPD” value ([2]; 80% water, 25 °C, 1 hr) was 2, the “Polymorphic Form by XRPD” value ([2]; 80% water, 25 °C, 3 hr) was 2 and the “Polymorphic Form by XRPD” value ([2]; 80% water, 25 °C, 6 hr) was 2. For the same compound, the “Polymorphic Form by XRPD” value ([2]; 80% water, 25 °C, 24 hr) was 2, the “Polymorphic Form by XRPD” value ([2]; 80% water, 50 °C, 1 hr) was 2 and the “Polymorphic Form by XRPD” value ([2]; 80% water, 50 °C, 3 hr) was 2. The “Polymorphic Form by XRPD” value ([2]; 80% water, 50 °C, 6 hr) was 2, the “Polymorphic Form by XRPD” value ([2]; 80% water, 50 °C, 24 hr) was 2 and the “Polymorphic Form by XRPD” value ([2]; 80% water, 65 °C, 1 hr) was 2. For the same compound, the “Polymorphic Form by XRPD” value ([2]; 80% water, 65 °C, 3 hr) was 2, the “Polymorphic Form by XRPD” value ([2]; 80% water, 65 °C, 6 hr) was 2 and the “Polymorphic Form by XRPD” value ([2]; 80% water, 65 °C, 24 hr) was 2. For the same compound, the “Polymorphic Form by XRPD” value ([3]; water 1 % vol) was 2, the “Polymorphic Form by XRPD” value ([3]; water 2 % vol) was 2 and the “Polymorphic Form by XRPD” value ([3]; water 4 % vol) was 2. For the same compound, the “Polymorphic Form by XRPD” value ([3]; water 6 % vol) was 2, the “Polymorphic Form by XRPD” value ([3]; water 8 % vol) was 1 and the “Polymorphic Form by XRPD” value ([4]; water 1 % vol) was 2. The “Polymorphic Form by XRPD” value ([4]; water 2 % vol) was 2, the “Polymorphic Form by XRPD” value ([4]; water 4 % vol) was 1 and the “Polymorphic Form by XRPD” value ([4]; water 6 % vol) was 1. The “Polymorphic Form by XRPD” value ([4]; water 8 % vol) was 1.

In the case of Cc1cc(N2CCN(c3ccc(C(=O)Nc4ccc(F)cc4)cc3)CC2)ccc1OC[C@@H]1CO[C@@](Cn2cncn2)(c2ccc(F)cc2F)C1 [Form 1, 4-(4-(4-(((3R,5R)-5-((1H-1,2,4-triazol-1-yl)methyl)-5-(2,4-difluorophenyl)tetrahydrofuran-3-yl)methoxy)-3-methylphenyl)piperazin-1-yl)-N-(4-fluorophenyl)benzamide], the “Form by XRPD Post Equilibration” value ([5]; MEK (anhydrous)) was 1, the “Form by XRPD Post Equilibration” value ([5]; MEK/5% Water) was 1 and the “Form by XRPD Post Equilibration” value ([5]; THF (anhydrous), Form 1 input: some evidence of Form 2 at 10 °C) was 1^b. The “Form by XRPD Post Equilibration” value ([5]; THF/5% Water) was 1.
